Source: the NIST ThermoML archive (doi:10.1021/je400250u)

How the values were obtained:
[1] = refractive index (Na D-line) (dimensionless); xn = mol fraction of the nth substance listed; details: 100 kPa, Liquid, Standard Abbe refractometry
[2] = xn = mol fraction of the nth substance listed; details: 100 kPa, Liquid; for viscosity: Capillary tube (Ostwald / Ubbelohde) method; for mass density: Vibrating tube method

C1CC[C@H]2CCCC[C@H]2C1 [cis-decahydronaphthalene] + CCCCCCCCCCC
Details	mass density, [2] [kg/m3]	refractive index, [1]	viscosity, [2] [mPa·s]
293.15 K, x1 = 0.1086	753.22	–	1.24
293.15 K, x1 = 0.2072	765.62	–	1.31
293.15 K, x1 = 0.3066	778.83	–	1.415
293.15 K, x1 = 0.4031	792.39	–	1.542
293.15 K, x1 = 0.5028	807.23	–	1.69
293.15 K, x1 = 0.5976	822.17	–	1.829
293.15 K, x1 = 0.6835	836.42	–	2.021
293.15 K, x1 = 0.7983	856.82	–	2.368
293.15 K, x1 = 0.8954	875.37	–	2.726
293.15 K, x1 = 1	896.85	–	3.355
298.15 K, x1 = 0.1086	749.55	1.4192	1.148
298.15 K, x1 = 0.2072	761.95	1.4242	1.208
298.15 K, x1 = 0.3066	775.16	1.4294	1.3
298.15 K, x1 = 0.4031	788.74	–	1.415
298.15 K, x1 = 0.4075	–	1.4352	–
298.15 K, x1 = 0.5028	803.55	–	1.554
298.15 K, x1 = 0.5059	–	1.4411	–
298.15 K, x1 = 0.592	–	1.4469	–
298.15 K, x1 = 0.5976	818.48	–	1.67
298.15 K, x1 = 0.6835	832.71	1.4532	1.84
298.15 K, x1 = 0.7983	853.1	1.4609	2.139
298.15 K, x1 = 0.8954	871.62	1.4686	2.458
298.15 K, x1 = 1	893.06	1.4776	3.011
303.15 K, x1 = 0.1086	745.85	–	1.062
303.15 K, x1 = 0.2072	758.26	–	1.112
303.15 K, x1 = 0.3066	771.47	–	1.201
303.15 K, x1 = 0.4031	785.05	–	1.326
303.15 K, x1 = 0.5028	799.85	–	1.424
303.15 K, x1 = 0.5976	814.77	–	1.53
303.15 K, x1 = 0.6835	828.99	–	1.682
303.15 K, x1 = 0.7983	849.36	–	1.949
303.15 K, x1 = 0.8954	867.86	–	2.233
303.15 K, x1 = 1	889.26	–	2.718
308.15 K, x1 = 0.1086	742.15	1.4151	0.977
308.15 K, x1 = 0.2072	754.56	1.4198	1.034
308.15 K, x1 = 0.3066	767.77	1.4251	1.111
308.15 K, x1 = 0.4031	781.35	–	1.215
308.15 K, x1 = 0.4075	–	1.431	–
308.15 K, x1 = 0.5028	796.14	–	1.307
308.15 K, x1 = 0.5059	–	1.4366	–
308.15 K, x1 = 0.592	–	1.4426	–
308.15 K, x1 = 0.5976	811.05	–	1.41
308.15 K, x1 = 0.6835	825.27	1.4487	1.546
308.15 K, x1 = 0.7983	845.62	1.4565	1.818
308.15 K, x1 = 0.8954	864.1	1.464	2.035
308.15 K, x1 = 1	885.46	1.4736	2.47
313.15 K, x1 = 0.1086	738.44	–	0.903
313.15 K, x1 = 0.2072	750.84	–	0.962
313.15 K, x1 = 0.3066	764.05	–	1.034
313.15 K, x1 = 0.4031	777.64	–	1.115
313.15 K, x1 = 0.5028	792.42	–	1.204
313.15 K, x1 = 0.5976	807.33	–	1.303
313.15 K, x1 = 0.6835	821.53	–	1.426
313.15 K, x1 = 0.7983	841.87	–	1.673
313.15 K, x1 = 0.8954	860.33	–	1.859
313.15 K, x1 = 1	881.65	–	2.252
318.15 K, x1 = 0.1086	734.71	1.4114	0.843
318.15 K, x1 = 0.2072	747.12	1.416	0.899
318.15 K, x1 = 0.3066	760.33	1.4213	0.964
318.15 K, x1 = 0.4031	773.91	–	1.038
318.15 K, x1 = 0.4075	–	1.4275	–
318.15 K, x1 = 0.5028	788.7	–	1.119
318.15 K, x1 = 0.5059	–	1.4331	–
318.15 K, x1 = 0.592	–	1.4383	–
318.15 K, x1 = 0.5976	803.6	–	1.209
318.15 K, x1 = 0.6835	817.79	1.4448	1.319
318.15 K, x1 = 0.7983	838.11	1.4536	1.505
318.15 K, x1 = 0.8954	856.55	1.4612	1.71
318.15 K, x1 = 1	877.85	1.4696	2.063
323.15 K, x1 = 0.1086	730.98	–	0.786
323.15 K, x1 = 0.2072	743.39	–	0.841
323.15 K, x1 = 0.3066	756.6	–	0.9
323.15 K, x1 = 0.4031	770.18	–	0.97
323.15 K, x1 = 0.5028	784.96	–	1.043
323.15 K, x1 = 0.5976	799.86	–	1.124
323.15 K, x1 = 0.6835	814.05	–	1.225
323.15 K, x1 = 0.7983	834.35	–	1.392
323.15 K, x1 = 0.8954	852.77	–	1.577
323.15 K, x1 = 1	874.05	–	1.898
